Normal boiling temperature and molar enthalpy data for 2 compounds are collected here from the NIST ThermoML archive (doi:10.1016/j.jct.2009.11.013).

The conditions of data set [1]: Liquid; Calvet microcalorimetry.
Data set [2] is described as follows: molar enthalpy of vaporization or sublimation. The note with it: 298.15 K; Liquid; Calvet microcalorimetry.

Numbers after ± are expanded uncertainties.

With `O=C1C=CCS1` [2(5H)-thiophenone], the Normal boiling temperature in data set [1] came to 103 ± 0.2 °C. Further, the molar enthalpy in data set [2] turned out to be 13.4 ± 0.574 kcal/mol.
In the case of `O=C1C=CCO1` [(5H)-furan-2-one], in data set [2], the molar enthalpy was determined as 13.3 ± 0.621 kcal/mol.
